The values below are quoted from earlier work in patent publication US20240316075A1, “METHODS FOR TREATMENT OF PAIN WITH CANNABINOIDS” (ANANDA SCIENTIFIC, INC, priority 2021, published 2024).

The conditions of data set [1]: rats, oral, 120 mg/kg dose.
In another data set the target is CB2 receptors (Homo sapiens, UniProt P34972).
The conditions of data set [2]: doses ranging from 10 mg to 6000 mg, single and multiple doses.

CB2 receptors, sequence (P34972 whole entry): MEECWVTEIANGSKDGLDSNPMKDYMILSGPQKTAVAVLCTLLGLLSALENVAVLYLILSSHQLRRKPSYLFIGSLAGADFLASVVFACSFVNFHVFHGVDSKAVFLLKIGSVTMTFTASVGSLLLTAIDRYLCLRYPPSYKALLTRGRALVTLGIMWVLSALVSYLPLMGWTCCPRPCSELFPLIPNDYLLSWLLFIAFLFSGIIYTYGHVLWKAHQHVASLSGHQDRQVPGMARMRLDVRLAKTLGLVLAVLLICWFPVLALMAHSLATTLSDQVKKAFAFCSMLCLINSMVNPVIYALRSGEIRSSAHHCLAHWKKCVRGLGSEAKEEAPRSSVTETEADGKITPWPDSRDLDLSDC

Regarding `C=C(C)[C@@H]1CCC(C)=C[C@H]1c1c(O)cc(CCCCC)cc1O` [CBD, 2-(1R,6R)-3-methyl-6-prop-1-en-2-ylcyclohex-2-en-1-yl-5-pentylbenzene-1,3-diol], the T½ in data set [1] was 4 to 5 h. In addition, the “Affinity for CB2 receptors” value on CB2 receptors was “low affinity”. The Safety finding entry in data set [2] is “safe”.
